Experimental data as given in patent publication US20090042770A1, “Branched Chain Amino Acid Chelate” (priority 2007, published 2009).

Key:
[1] = pre-hydrolyzed BSA perfused into jejunum of human subjects (Reicht et al. 1997); cited from earlier work
[2] = Incorporation of leucine products into beverages / aqueous systems (dispersibility, separation, turbidity); format: physicochemical; conditions: for ease of dispersion when incorporated into beverages: beverages / aqueous systems

| Molecule | rate of absorption [1] | appearance in aqueous solution (separation, turbidity) [2] | ease of dispersion when incorporated into beverages [2] |
| --- | --- | --- | --- |
| N[C@@H](CSSC[C@H](N)C(=O)O)C(=O)O [cystine] | 3% |  |  |
| CC(C)C[C@H](N)C(=O)O [free leucine, (S)-2-amino-4-methylpentanoic acid, reference compound] |  | separation phenomenon | difficult to disperse |
| calcium leucinate [chelated leucine product] |  | did not separate or increase turbidity | much more easily dispersed |
